From patent US5972952A, “Neuroprotective pharmaceutical composition containing stereoisomers of arylcyclohexylamines” (Le Centre National De La Recherche Scientifique, priority 1996, dated 1999)

Experiments:
PCP receptor = experiment: [^3H]TCP binding to the PCP receptor (rat brain minus cerebellum homogenate); conditions: inhibition of [^3H]TCP (1 nM) specific binding, 30 min, 25° C., pH 7.7
Method: 1-[1-(2-thienyl)-2-methylcyclohexyl]piperidine (TCP) binding to the PCP receptor was performed as previously described. […] The rat brain (minus the cerebellum) was removed and homogenized with an Ultraturax (Ika Werke, Staufen, Germany, maximum setting) in a 50 mM Tris/HCl, pH 7.7 buffer for 20 s at 4° C. The homogenate was then centrifuged at 49,000 g for 20 min. and the pellet was resuspended in the same buffer and the homogenization-centrifugation steps performed a second time. The final pellet was resuspended in 10 volumes of a 50 mM Tris/Hepes, pH 7.7 buffer and used without further purification.
The homogenate (0.5-0.8 mg protein/ml) was incubated with N-[1-(2-thienyl) cyclohexyl]3,4-[^3 H]piperidine ([^3 H]TCP, 1 nM) (Amersham, Arlington Heights, Ill, 48 Ci/mmol) in a 5 mM Tris/Hepes, pH 7.7 buffer in the absence (total binding) and in the presence of the test compounds for 30 min. at 25° C. in a volume of 0.5 ml. […] The filters were rinsed twice with 5 ml of a 50 mM NaCl, Tris HCl 10 mM, pH 7.7 buffer and the radioactivity retained counted in 3.5 ml ACS (Amersham) with an Excel 1410 (LKB) liquid scintillation spectrophotometer. The nonspecific binding was determined in parallel experiments in the presence of 100 μM unlabeled TCP.

[1] = tested on: mixed neuronal and glial neocortical cells; experiment: Protection of cultured neuronal cells against glutamate neurotoxicity (LDH release); format: cell-based, Sprague-Dawley rat; conditions: Rattus norvegicus, glutamate 500 μM for 5 min, 24 h, 100% = glutamate without test compound, read-out: % OF DEAD; for neurotoxicity, % of glutamate alone at 0.1 µM: test compound 0.1 μM; for neurotoxicity, % of glutamate alone at 1 µM: test compound 1 μM; for neurotoxicity, % of glutamate alone at 5 µM: test compound 5 μM; for neurotoxicity, % of glutamate alone at 10 µM: test compound 10 μM
Method: Cultures of mixed neuronal and glial neocortical cells were prepared from 18-day-old Sprague-Dawley rat foetuses (IFFA-Credo, St. Germain l'Arbresle, France). The cerebral hemispheres were rapidly dissected in Hanks' BSS supplemented with glucose (6 g/l), incubated in trypsine-EDTA (5 min at 35° C.), rinsed with calcium/magnesium-free glucosed Hanks' and mechanically dissociated. After centrifugation (10 min, 70 g), the cells were resuspended in the culture medium consisting of 87% Eagle's minimal essential medium (MEM), 10% horse serum and 0.6% glucose (without antibiotics), and plated on poly-d-lysine (10 μg/cm^2) coated coverslips, in 24-well dishes, to a final density of 4×10^5 cells/cm^2 in 400 μl/well. The cultures were maintained for 2-3 weeks at 35° C. in a humidified atmosphere (95% air/5% CO2), one-third of the medium being replaced every 4 days.
After 17-20 days in vitro, the culture medium was replaced with 400 μl of experimental medium (EM supplemented with glucose) containing the test compound for 5 min. at room temperature. This medium was replaced with the experimental medium containing the same concentration of test compound plus glutamate 500 μM for another 5 min. Finally, the cells were rinsed with the experimental medium and incubated for 24 h. The control cultures had received the same number of replacements of medium as the experimental ones, with standard experimental medium. The 100% neurotoxicity level was based on the effect of glutamate 500 μM for 5 min. The protective effect was quantified by estimation of the activity of the lactate dehydrogenase (LDH) released in the medium. Culture supernatant (100 μl) was added to phosphate buffer (875 μl, 125 mM, pH 7.6) containing 0.3 mM pyruvic acid and β-NADH (25 μl, 10 mg/ml). The decrease in absorbance was measured at 340 nm (Lockhart, et al., Brain Res. 630:36-40 (1993)).
Four concentrations of test compounds were used, i.e., 10, 5, 1, and 0.1 μM. The dead-cell population was determined by LDH enzymic activity and the results, presented in Table II, were compared with the 100% mortality based on the 500 μM glutamate treated cells without test compound protection.

| SMILES | IC50 (PCP receptor) | neurotoxicity, % of glutamate alone at 0.1 µM [1] | neurotoxicity, % of glutamate alone at 1 µM [1] | neurotoxicity, % of glutamate alone at 5 µM [1] | neurotoxicity, % of glutamate alone at 10 µM [1] |
| --- | --- | --- | --- | --- | --- |
| C[C@@H]1CCCC[C@]1(c1ccco1)N1CCCCC1 [(1S,2R)1-[1-(2-Furanyl)-2-methylcyclohexyl]-piperidine] | 5.5 ± 1.9 nM | 92.5% | 83.6% | 43.3% | 32.1% |
| C[C@@H]1CCCC[C@]1(c1cccs1)N1CCCCC1 [(1S,2R)1-[1-(2-Thienyl)-2-methylcyclohexyl]-piperidine] | – | 90.3% | 32.9% | 27.2% | 29.7% |
